Test results published in patent US6555582B1, “Eye treatments using synthetic thyroid hormone compositions” (The Regents of the University of California, priority 1996, dated 2003).
Like-named read-outs stand apart in the source and are kept apart here.

Legend:
CD44-v 3 = conditions: HTM cells exposed to supplemental T3 for 18 hours
Method: (§1) To investigate whether CD44 receptors are expressed by HTM cells, four CD44 isoforms can be measured using RT-PCR analysis with probes for CD44s, CD44E, CD44-v1 and CD44-v3. […] RNA was made using RNA TrackTM (Biotecx, Friendswood, Tex.). The RNA was used as a template for the first strand synthesis of cDNA in a reaction mixture containing 1000 U Moloney Murine Leukemia Virus Reverse Transcriptase (BRL, Gaithersburg, Md.), 50 mM random hexamer primer, 50 mM Tris-HCl (pH 8.3), 75 mM KCl, 10 mM dithiothreitol, 3 mM MgC12, 0.5 mM each of dGTP, dATP, dTTP and dCTP in 60 ul total volume. The cDNA reactions were carried out at 37° C. for 90 min, and then diluted 1:3 or 1:7 in water, pretreated with DEPC. Oligonucleotide primers were diluted to 40 μM in water.
(§2) For RT-PCR, a modified hot start method was used. A quantity of 3-5 μl of cDNA was added to 30 μl of a master mix containing 0.8 μl of each primer, 17 mM Tris-HCI (pH 8.3) and 80 mM KCI. Water was added to the cDNA reactions to a final volume of 40 μl. All reactions were overlaid with light mineral oil and heated to 99° C. After 10 min the reactions were cooled to 94° C. and a 10 μl volume containing 7 mM MgCI2, 1 mM each of dATP, dTTP, dGTP and dCTP, and 1.2 U Taq Polymerase (Perkin-Elmer Cetus, Branchburg, N.J.) was added directly through the oil overlay. […]

HTM cells [1] = conditions: 10^−7 M, non-confluent cultures, serum-free, day 10, vs controls lacking T3
[2] = tested on: Normal pigmented Dutch rabbits
HTM cells [3] = conditions: for reduction in HA secretion: T3-supplemented vs T3-stripped media (No Tx)
CD44E = conditions: HTM cells exposed to supplemental T3 for 18 hours
Method: as §1, §2

HTM cells [4] = conditions: 10^−7M
Method: The assay system visualizes the cell's extracellular matrix by taking advantage of its ability to exclude added formalized red blood cells from an area around the cell. Proteoglycan monomer and HA are added to the cells in excess as pericellular matrix assembly is observed by microscopy.
HTM cells were plated on 35-mm dishes at a density of 1×10^4 cells per plate. […] For exogenous matrix assembly, cells were then incubated for 3 hours at 37° C. with 3.0 mg/ml of aggregating proteoglycan monomer (purified from rat chondrosarcoma tumor (Ref. 1)) and 15 μg/ml of hyaluronan (grade 1, Sigma Chemical Co., St. Louis, Mo.). The medium was removed and 0.75 ml of a suspension of formaldehyde fixed red blood cells (1×10^8 cells/ml) in phosphate buffered saline with 0.1% bovine serum albumin was added to each well of cells. After 10 minutes the cells and extracellular matrices (ECMs) were observed visualized by phase contrast microscopy (REF 2, 3). The cell matrices were categorized into one of three groups. Cells having no coats have no visible ECM. Cells having small coats have a visible ECM that extends less than the width of the cell's nucleus out from the cell's plasma membrane. Cells having large coats have a visible ECM that extends greater than the width of the cell's nucleus out from the cell's plasma membrane.

3,3′-5-triiodo-L-thyronine [T3]
expression of CD44-v 3 isoform (CD44-v 3): dramatic reduction
fold increase in secreted hyaluronidase activity (HTM cells [1]): 1.9 fold
decrease in IOP within three weeks of administration ([2]; five rabbits): at least some detectable decrease in IOP
largest decrease in IOP after three weeks of T3 administration ([2]; one rabbit): 25%
fold reduction in secreted HA concentration (HTM cells [3]; 10^−7 M, confluent cells, day 5, vs control cultures): 2.95 fold
reduction in HA secretion (HTM cells [3]; day 2, FIG. 1): 57%
reduction in HA secretion (HTM cells [3]; day 4, FIG. 1): 66%
T3 concentration of maximal inhibition of HA production (HTM cells [3]; cultured HTM cells, FIG. 2): 10^−7-10^−6 M
reduction of HA concentration in the media, non-confluent vs confluent treated cells (HTM cells [3]; non-confluent (less than 75% confluent) cells): even greater reduction
EC50 (HTM cells [3]; read-out: half maximal concentration for reduction of HA concentration, confluent cells, dose response curve FIG. 2): ~5 nM
expression of CD44E isoform (CD44E): dramatic reduction
fold greater number of cells with no coats than cells grown in the absence of T3 (HTM cells [4]; 2 days): ~2 fold
fold greater number of cells with no coats than cells grown in the absence of T3 (HTM cells [4]; 4 days): more than 4 fold
